Molecules are shown by their SMILES. Some results are limits rather than exact numbers.

Data set [1] can be described thus: Related substance analysis by HPLC after refrigerated storage for about 2 years. In kind it is physicochemical. To be noted: substance stored under refrigerated conditions (5° C.±3° C.) for about 2 years; for Area %: HPLC 220 nm. The method, then:
About 35 mg of a (3S)-3-(4-(3-(1,4-dioxaspiro[4,5]dec-7-en yl)benzyloxy)phenyl)hex-4-inoic acid-containing substance stored under refrigerated conditions (5° C.±3° C.) for about 2 years was accurately weighed and put into a 50-ml volume flask, a diluent was added to the flask at about ⅔ of the volume, and the resulting mixture was mixed well. Thereafter, a related substance was analyzed using HPLC (Agilent Technologies 1200 Series).
<HPLC conditions> Operation Parameters
Column: Kinetex EVO C18, 5 um, 4.6×250 mm
Column temperature: 25° C.
Sample concentration: 0.7 mg/ml
Mobile Phase A: 0.01 M K2HPO4 (pH 7)

Data set [2] in a line: Stress sample with oxidant (3% hydrogen peroxide), related substance analysis by HPLC. The data set is classed as physicochemical. Conditions: 3% hydrogen peroxide solution, room temperature, 24 hours; HPLC as in Example 1. The method, then: A stress sample stressed using an oxidant was prepared to confirm the production of the related substance. About 35 mg of a (3S)-3-(4-(3-(1,4-dioxaspiro[4,5]dec-7-en-8-yl)benzyloxy)phenyl)hex-4-inoic acid-containing substance stored under refrigerated conditions (5° C.±3° C.) for about 2 years was accurately weighed and put into a 50-ml volume flask. A diluent was added to the flask at about ⅔ of the volume, and the resulting mixture was mixed well. After 2 ml of a 3% hydrogen peroxide solution was added thereto, the resulting mixture was mixed well and marked with a diluent. The stress sample was left to stand at room temperature, and 24 hours later, the related substance was analyzed using HPLC (Agilent Technologies 1200 Series). The related substance was analyzed under the same conditions as in Example 1. As a result, it was confirmed that the related substance was produced from the stress sample (RRT 0.93, Area 3.83%). A comparison of the HPLC data of both samples using the sample of Example 1 as a control is shown in FIG. 4 (blue: control, green: stress sample). It was confirmed that the production of the related substance of Chemical Formula 2 in the stress sample was increased compared to the control.

The conditions of data set [3]: research project title; no test described; cited from earlier work.
The conditions of data set [4]: research project title; no test described; cited from earlier work. This is another data set of the same source.

On to `CC#C[C@@H](CC(=O)O)c1ccc(OCc2cccc(C3=CCC4(CC3)OCCO4)c2)cc1` [Chemical Formula 1, (3S)-3-(4-(3-(1,4-dioxaspiro[4,5]dec-7-en-8-yl)benzyloxy)phenyl)hex-4-inoic acid], for which the Area % in data set [1] is 98.9289%.
In the case of `CC#C[C@@H](CC(=O)O)c1ccc(OCc2cccc(C34CCC5(CC3O4)OCCO5)c2)cc1` (stereo partly drawn) [Chemical Formula 2, (3S)-3-(4-((3-(7-oxaspiro[bicyclo[4.1.0]heptane-3,2′-[1,3]dioxolan]-6-yl)benzyl)oxy)phenyl)hex-4-inoic acid], the “Area of related substance produced (RRT 0.93)” value in data set [2] came out at 3.83%. The Area % in data set [1] is listed as 0.2566%. The “Area % of related substance (RRT: 0.93)” value in data set [1] (HPLC) turned out to be 0.26%.
What is called EC50 is the midpoint of the concentration-response curve. Consider `CC#C[C@@H](CC(=O)O)c1ccc(OCc2cccc(C3=CCC4(CC3)OCCO4)c2)cc1` [HD-6277], for which the EC50 in data set [3] is less than 1 nM. The “hypoglycemic effect (HbA1c)” value in data set [4] was greater than 1%.

(Values after patent US12540142B2, “Method for evaluating quality of (3S)-3-(4-(3-(1,4-dioxaspiro[4,5]dec-7-en-8-yl)benzyloxy)phenyl)hex-4-inoic acid” (Hyundai Pharm Co., Ltd., priority 2020, dated 2026).)
